From patent US4990613A, “(1R,5S,6S)-2-[(6,7-dih ydro-5H-pyrazolo[1,2-a][1,2,4]triazolium-6-yl)]thio-6-[R-1-hydroxyethyl]- 1-methyl-carbapenem-3-carboxylate and intermediate therefor” (Lederle (Japan), Ltd., priority 1987, dated 1991)

How the values were obtained:
physchem = details: amorphous solid storage
[1] = test system: Escherichia coli K12 C600; test: Antibacterial test, agar plate dilution method; assay type: cell-based; details: 37° C., 18 hours, MH agar
Salmonella typhi 901 = test: Antibacterial test, agar plate dilution method; assay type: cell-based; details: 37° C., 18 hours, MH agar
[2] = test system: Salmonella paratyphi 1015; test: Antibacterial test, agar plate dilution method; assay type: cell-based; details: 37° C., 18 hours, MH agar
[3] = test system: Citrobactor freundii GN 346; test: Antibacterial activity against clinically isolated β-lactamase producing strains; assay type: cell-based; details: cephalosporinase producing strain, 18 to 20 hours
Experimental: (§1) A solution of a cephalosporinase producing strain stored by Episome Research Institute, which was prepared by incubating the strain in a sensitivity test broth (STB; product of Nissui K.K.) for 18 hours, was diluted with a fresh STB solution to contain 10^5 cells per milliliter and the diluted solution was then inoculated as spots with a microplanter on a sensitivity disk agar-N (SDA; product of Nissui K.K.) containing a test compound. The disk agar was then incubated for 18 to 20 hours. A minimum inhibitory concentration was determined as a minimum concentration in which the test microorganism had no longer grown after a 18 to 20 hour incubation.

[4] = test system: Citrobactor freundii GN 7391; test: as above; assay type: cell-based; details: cephalosporinase producing strain, 18 to 20 hours
Experimental: as §1

[5] = test system: Enterobacter cloacae GN 5797; test: as above; assay type: cell-based; details: cephalosporinase producing strain, 18 to 20 hours
Experimental: as §1

[6] = test system: Enterobacter cloacae GN 7467; test: as above; assay type: cell-based; details: cephalosporinase producing strain, 18 to 20 hours
Experimental: as §1

[7] = test system: Enterobacter cloacae GN 7471; test: as above; assay type: cell-based; details: cephalosporinase producing strain, 18 to 20 hours
Experimental: as §1

Escherichia coli GN 5482 = test: as above; assay type: cell-based; details: cephalosporinase producing strain, 18 to 20 hours
Experimental: as §1

[8] = test system: Escherichia coli No. 1501; test: as above; assay type: cell-based; details: cephalosporinase producing strain, 18 to 20 hours
Experimental: as §1

Escherichia coli No. 96 = test: as above; assay type: cell-based; details: cephalosporinase producing strain, 18 to 20 hours
Experimental: as §1

[9] = test system: Klebsiella oxytoca GN 10650; test: as above; assay type: cell-based; details: cephalosporinase producing strain, 18 to 20 hours
Experimental: as §1

Proteus morganii GN 5307 = test: as above; assay type: cell-based; details: cephalosporinase producing strain, 18 to 20 hours
Experimental: as §1

Proteus morganii GN 5375 = test: as above; assay type: cell-based; details: cephalosporinase producing strain, 18 to 20 hours
Experimental: as §1

Proteus morganii GN 5407 = test: as above; assay type: cell-based; details: cephalosporinase producing strain, 18 to 20 hours
Experimental: as §1

Proteus vulgaris GN 4413 = test: as above; assay type: cell-based; details: cephalosporinase producing strain, 18 to 20 hours
Experimental: as §1

Proteus vulgaris GN 76 = test: as above; assay type: cell-based; details: cephalosporinase producing strain, 18 to 20 hours
Experimental: as §1

Proteus vulgaris GN 7919 = test: as above; assay type: cell-based; details: cephalosporinase producing strain, 18 to 20 hours
Experimental: as §1

[10] = test system: Providencia rettgeri GN 4430; test: as above; assay type: cell-based; details: cephalosporinase producing strain, 18 to 20 hours
Experimental: as §1

[11] = test system: Providencia rettgeri GN 4762; test: as above; assay type: cell-based; details: cephalosporinase producing strain, 18 to 20 hours
Experimental: as §1

[12] = test system: Providencia rettgeri GN 5284; test: as above; assay type: cell-based; details: cephalosporinase producing strain, 18 to 20 hours
Experimental: as §1

[13] = test system: Pseudomonas aeruginosa GN 10362; test: as above; assay type: cell-based; details: cephalosporinase producing strain, 18 to 20 hours
Experimental: as §1

[14] = test system: Pseudomonas aeruginosa GN 10367; test: as above; assay type: cell-based; details: cephalosporinase producing strain, 18 to 20 hours
Experimental: as §1

[15] = test system: Pseudomonas aeruginosa GN 918; test: as above; assay type: cell-based; details: cephalosporinase producing strain, 18 to 20 hours
Experimental: as §1

[16] = test system: Pseudomonas cepacia GN 11164; test: as above; assay type: cell-based; details: cephalosporinase producing strain, 18 to 20 hours
Experimental: as §1

[17] = test system: Serratia marcescens GN 10857; test: as above; assay type: cell-based; details: cephalosporinase producing strain, 18 to 20 hours
Experimental: as §1

Serratia marcescens L-65 = test: as above; assay type: cell-based; details: cephalosporinase producing strain, 18 to 20 hours
Experimental: as §1

Serratia marcescens L-82 = test: as above; assay type: cell-based; details: cephalosporinase producing strain, 18 to 20 hours
Experimental: as §1

[18] = test system: Staphylococcus aureus FDA 209P JC-1; test: Antibacterial test, agar plate dilution method; details: 37° C., 18 hours, MH agar
[19] = test system: Staphylococcus aureus Terajima; test: Antibacterial test, agar plate dilution method; details: 37° C., 18 hours, MH agar
[20] = test system: Staphylococcus aureus MS352; test: Antibacterial test, agar plate dilution method; details: 37° C., 18 hours, MH agar
[21] = test system: Streptococcus pyogenes Cook; test: Antibacterial test, agar plate dilution method; details: 37° C., 18 hours, MH agar
[22] = test system: Micrococcus luteus ATCC9341; test: Antibacterial test, agar plate dilution method; details: 37° C., 18 hours, MH agar
[23] = test system: Bacillus subtilis ATCC6633; test: Antibacterial test, agar plate dilution method; details: 37° C., 18 hours, MH agar
[24] = test system: Escherichia coli NIHJ JC-2; test: Antibacterial test, agar plate dilution method; details: 37° C., 18 hours, MH agar
[25] = test system: Enterobacter aerougenes ATCC13048; test: Antibacterial test, agar plate dilution method; details: 37° C., 18 hours, MH agar
Enterobacter cloacae 963 = test: Antibacterial test, agar plate dilution method; details: 37° C., 18 hours, MH agar
[26] = test system: Klebsiella pneumoniae PCI-602; test: Antibacterial test, agar plate dilution method; details: 37° C., 18 hours, MH agar
[27] = test system: Salmonella typhimurium IID971; test: Antibacterial test, agar plate dilution method; details: 37° C., 18 hours, MH agar
[28] = test system: Salmonella schottmuelleri 8006; test: Antibacterial test, agar plate dilution method; details: 37° C., 18 hours, MH agar
[29] = test system: Salmonella enteritidis G14; test: Antibacterial test, agar plate dilution method; details: 37° C., 18 hours, MH agar
[30] = test system: Serratia marcescens IAM1184; test: Antibacterial test, agar plate dilution method; details: 37° C., 18 hours, MH agar
[31] = test system: Morganella morganii IFO3848; test: Antibacterial test, agar plate dilution method; details: 37° C., 18 hours, MH agar
[32] = test system: Proteus mirabilis IFO3849; test: Antibacterial test, agar plate dilution method; details: 37° C., 18 hours, MH agar
Proteus vulgaris OX-19 = test: Antibacterial test, agar plate dilution method; details: 37° C., 18 hours, MH agar
Proteus vulgaris HX-19 = test: Antibacterial test, agar plate dilution method; details: 37° C., 18 hours, MH agar
[33] = test system: Providencia rettgeri IFO 3850; test: Antibacterial test, agar plate dilution method; details: 37° C., 18 hours, MH agar
[34] = test system: Pseudomonas aeruginosa IFO 3445; test: Antibacterial test, agar plate dilution method; details: 37° C., 18 hours, MH agar
[35] = test system: Pseudomonas aeruginosa NCTC 10490; test: Antibacterial test, agar plate dilution method; details: 37° C., 18 hours, MH agar

C[C@@H](O)[C@H]1C(=O)N2C(C(=O)[O-])=C(SC3Cn4cnc[n+]4C3)[C@H](C)[C@H]12 (some centres unmarked) [amorphous form]
remaining at 240 h (physchem): ~40%

(1R, 5S, 6S)-2-[4-pyrazolidinyl]thio-6-[(R)-1-hydroxyethyl]-1-methyl-carbapenem-3-carboxylic acid [Compound 14]
MIC [1]: 0.2 µg/mL
MIC (Salmonella typhi 901): 0.025 µg/mL
MIC [2]: 0.39 µg/mL
MIC [3]: 0.78 µg/mL
MIC [4]: 0.78 µg/mL
MIC [5]: 0.1 µg/mL
MIC [6]: 1.56 µg/mL
MIC [7]: 0.1 µg/mL
MIC (Escherichia coli GN 5482): 0.025 µg/mL
MIC [8]: 0.025 µg/mL
MIC (Escherichia coli No. 96): 0.025 µg/mL
MIC [9]: 0.1 µg/mL
MIC (Proteus morganii GN 5307): 0.39 µg/mL
MIC (Proteus morganii GN 5375): 1.56 µg/mL
MIC (Proteus morganii GN 5407): 1.56 µg/mL
MIC (Proteus vulgaris GN 4413): 1.56 µg/mL
MIC (Proteus vulgaris GN 76): 1.56 µg/mL
MIC (Proteus vulgaris GN 7919): 1.56 µg/mL
MIC [10]: 0.2 µg/mL
MIC [11]: 0.2 µg/mL
MIC [12]: 0.2 µg/mL
MIC [13]: 1.56 µg/mL
MIC [14]: 1.56 µg/mL
MIC [15]: 1.56 µg/mL
MIC [16]: 0.39 µg/mL
MIC [17]: 1.56 µg/mL
MIC (Serratia marcescens L-65): 0.2 µg/mL
MIC (Serratia marcescens L-82): 0.1 µg/mL
MIC [18]: 0.05 µg/mL
MIC [19]: 0.025 µg/mL
MIC [20]: 0.1 µg/mL
MIC [21]: 0.025 µg/mL
MIC [22]: 0.1 µg/mL
MIC [23]: 0.1 µg/mL
MIC [24]: 0.05 µg/mL
MIC [25]: 0.39 µg/mL
MIC (Enterobacter cloacae 963): 0.1 µg/mL
MIC [26]: 0.05 µg/mL
MIC [27]: 0.1 µg/mL
MIC [28]: 0.2 µg/mL
MIC [29]: 0.2 µg/mL
MIC [30]: 0.2 µg/mL
MIC [31]: 0.1 µg/mL
MIC [32]: 0.39 µg/mL
MIC (Proteus vulgaris OX-19): 0.025 µg/mL
MIC (Proteus vulgaris HX-19): 0.1 µg/mL
MIC [33]: 0.2 µg/mL
MIC [34]: 0.78 µg/mL
MIC [35]: 0.78 µg/mL
